Key:
[1] = tested on: endotoxin shock in TLR2−/− mice; assay: Endotoxin induced sepsis in TLR2-/- mice; format: in vivo, mouse
Protocol: (§1) FIG. 6 Panels C and A show detection of TNF-a in TLR2^−/− or IL-10^−/− mice treated intravenously treated i.v. with PBS or PSA directly following induction of endotoxin shock by intraperitoneal administration of high doses of LPS (500 ug).
(§2) Therefore, to determine whether PSA protection from endotoxin induced sepsis also required these pathways the following experiments were performed.

[2] = tested on: endotoxin induced sepsis, Balb/c animals; assay: Endotoxin induced sepsis, PSA administered i.v. after LPS; format: in vivo, mouse
Protocol: To mimic a clinically significant treatment situation, PSA was administered after inducing endotoxin induced sepsis. Balb/c animals were treated with high doses of LPS (500 ug) i.p. and subsequently treated i.v. with PBS, PSA or PSA was administered 30 minutes post-LPS (see FIG. 2).
Since this is an acute model, where overt inflammation occurs within one hour after induction two timepoints for PSA treatment were tested. In particular, serum was collected 1 and 4 hours post-LPS injection and cytokines TNF-α (FIG. 2 Panel A) and IL-6 (FIG. 2 Panel B) were detected by ELISA.
Each experiment consisted of at least 4 animals in each groups and was repeated twice. * p<0.05 **p<0.005 as measured by a students t test One group received i.v. administration of PSA directly after LPS injection (PSA same) while the second group received PSA thirty minutes post-LPS injection (PSA-post) (FIG. 2).

[3] = tested on: LPS sepsis in RAG−/− recipients of sIgM−/− B cells; assay: Endotoxin induced sepsis in RAG-/- recipients of B cells from sIgM-/- mice; format: in vivo, mouse
Excerpt: To test whether IgM is the mechanism by which PSA is able to protect from endotoxin induced sepsis total B cells were isolated from the spleen of animals that are unable to make secreted IgM (sIgM^−/−) and transferred these cells into RAG^−/− recipients according to procedure of Example 7.

[4] = tested on: endotoxin shock in IL-10−/− mice; assay: Endotoxin induced sepsis in IL-10-/- mice; format: in vivo, mouse
Protocol: as §1, §2

[5] = tested on: endotoxin (lipopolysaccharide; LPS) induced sepsis, Balb/c animals; assay: Endotoxic shock model (high dose LPS), PSA given orally or intravenously before induction; format: in vivo, mouse
Protocol: In this model, animals are treated intravenously with high doses of endotoxin (lipopolysaccharide; LPS). Administration of LPS leads to the production of massive amounts of inflammatory cytokines such as tumor necrosis factor α (TNF-α) and IL-6 and animals rapidly succumb to death. This model closely resembles the cytokine storm seen in patients suffering from septic shock.
Five days post-induction CD4+ T cells were isolated from the spleens of the indicated animals. Equal amounts of RNA were used to perform q-RT-PCR on IL6 or TNFa cytokines at 1 and 4 hours post-LPS. (FIG. 1 panel A diagram on the left, and FIG. 1 panel B diagram on the left)
In another set of experiments, Balb/c animals were treated intravenously with PSA 24 hours prior to be induced with TNBS colitis. Five days post-induction CD4+ T cells were isolated from the spleens of the indicated animals. Equal amounts of RNA were used to perform q-RT-PCR on IL6 or TNFa cytokines at 1 and 4 hours post-LPS. (FIG. 1 panel A diagram on the right, and FIG. 1 panel B diagram on the right)
Detection of percent survival of in animals treated intravenously with high doses of endotoxin (lipopolysaccharide; LPS) was performed. Accordingly, Balb/C animals were orally or intravenously treated with PSA or PBS as described in Example 2 and the number of surviving mice counted.

[6] = tested on: LPS sepsis in RAG−/− recipients of B1 or MZ B cells; assay: Endotoxin induced sepsis in RAG-/- recipients of sort purified B1 or MZ B cells, treated with PSA; format: in vivo, mouse
Protocol: Multiple subsets of B cells exist within the spleen including B1, follicular, and MZ B cell populations. […] Both B1 and MZ B cells can secrete IgM in a T cell independent manner, therefore experiments were performed to determine whether either of these subsets conferred protection from sepsis by PSA. B1 cells and MZ B cells were sort purified and transferred into RAG^−/− animals. Animals were subsequently treated with PSA and induced for disease.
In particular in a first set of experiments, marginal zone B cells (CD19+B220+IgM^hiCD21^hiCD23) were sort purified and transferred into RAG^−/− recipients. Twenty-four hours later these animals were given high dose LPS and serum collected at 1 and 4 hours to assay for TNF-α (FIG. 4 Panel A) and survival was monitored (FIG. 4 Panel B).

[7] = tested on: TNBS colitis; assay: TNBS colitis, systemic (spleen) inflammation after PSA; format: in vivo, mouse
Protocol: Three models of intestinal inflammation were used: 1) CD4^+CD45Rb^high T cells were purified from the spleens of wild-type or IL-10^−/− donor mice by flow cytometry and transferred into Rag (C57Bl/6) recipients as described. 2) TNBS colitis was induced by pre-sensitization of wild-type (C57Bl/6) mice on the skin with a TNBS/acetone mix. Seven days after sensitization, 2.5% TNBS in ethanol was administered rectally; mice were sacrificed 3-6 days later.
Cytokines from the spleen, colons, or mesenteric lymphonodes (MLNs) were assayed by ELISA, Q-PCR, or flow cytometry. Colitis was assessed with tissue sections (fixed, paraffin embedded, sectioned onto a slide, and stained with hematoxylin and eosin) and was scored by a blinded pathologist (Dr. R. T. Bronson, Harvard Medical School) according to a standard scoring system: 0, no thickening of colonic tissues and no inflammation (infiltration of lymphocytes); 1, mild thickening of tissues but no inflammation; 2, mild thickening of tissues and mild inflammation; 3, severe thickening and severe inflammation. BMDCs were purified from femurs of mice after extraction and washing in PBS. Cells were cultured for 8 days in C-RPMI-10 in the presence of GM-CSF (20 ng/mL; Biosource, Camarillo, Calif.). CD4^+ T cells were purified by negative selection over a magnetic column (Miltenyi or R& D Systems).
The backs of wild-type (C57BL/6) male mice were shaved, and pre-sensitization solution (150 μL; acetone with olive oil in a 4:1 ratio mixed with 5% TNBS in a 4:1 ratio) was slowly applied. […] Mice were analyzed 4-6 days after TNBS administration.
Animals were orally gavaged with vehicle or PSA twenty-four hours prior to being induced with colitis. Five days post-induction CD4+ T cells were isolated from the spleens of indicated animals and analyzed for the inflammatory cytokines TNF-α, IL-17a and IL-6 to determine how systemic inflammation is influenced during intestinal disease.

[8] = tested on: cecal-ligation puncture (CLP) model; assay: Cecal-ligation puncture (CLP) model of sepsis; format: in vivo, mouse; details: PSA vs PBS mock treated (about fifty percent succumbed)
Excerpt: To validate a role for PSA during protection from sepsis, a second, well-established mouse model of sepsis called the cecal-ligation puncture (CLP) model was used. CLP induces colonic spillage of bacteria into the peritoneal cavity, which then enter the bloodstream. Although there are limitations, this model is thought to best mimic a primary cause of human sepsis (polymicrobial infection from the gut).

[9] = tested on: TNF-α or IL-6 production; assay: Cytokine induction by PSA administered i.v. alone; details: data not shown
[10] = tested on: LPS sepsis in RAG−/− mice; assay: Endotoxin induced sepsis in RAG-/- mice with or without transfer of T cells, CD4 depleted splenocytes or CD19+ B cells; format: in vivo, mouse
Protocol: In particular, the requirement for T and B cells during PSA mediated protection from sepsis was tested.
In a first set of experiments, RAG^−/− animals were treated i.v. with either PBS or PSA 24 hours prior to receiving high dose LPS i.p. Serum was collected from animals at 1 and 4 hours, TNF-α and IL-6 were measured by ELISA (FIG. 3 Panel A) and survival monitored (FIG. 3 Panel B). Two experiments were combined. *p<0.05 **p<0.005 using a logrank and Gehan-Wilcoxon test.
In a second set of experiments, RAG^−/− recipients received either CD4+CD3+ (square) or total T cells (CD3+) (triangle) or CD4 depleted splenocytes (includes CD8+ T cells and CD19+ B cells) (sphere). Twenty-four hours later animals were given LPS. Serum was collected 1 and 4 hours post-LPS to measure cytokines (FIG. 3 Panel C) and survival was monitored (FIG. 3 Panel D).
In a third set of experiments sort purified CD19+ total B cells were purified from the spleen of donor animals and transferred into RAG^−/− recipients and inflammatory cytokines were monitored at 1 and 4 hours (FIG. 3 Panel E) as well as survival (FIG. 3 Panel F). * p<0.05 **p<0.005 by a student's t test for all ELISA data and *p<0.05 **p<0.005 using a logrank and Gehan-Wilcoxon test for survival data. ELISA data is representative from one experiment repeated twice with an n of 4 in each group. Survival data combines multiple experiments.

[11] = tested on: marginal zone B cells; assay: Transfer of MZ B cells from PSA treated donors into RAG-/- recipients, then LPS induced sepsis; format: in vivo, mouse
Protocol: To further validate this conclusion, experiments were performed to determine whether the function of PSA on MZ B cells could be transplanted into mice that have never been treated with PSA. WT animals were treated i.v. with two doses of PSA and splenic MZ B cells were isolated and subsequently transferred into a RAG^−/− recipients. LPS induced sepsis was then induced in the MZ B cell recipients without any treatment with PSA.
In particular a second set of experiments, WT C57Bl/6 animals were treated i.v. with either PBS or PSA (100 ug) every other day for a total of three days (FIG. 4 Panels C and D). MZ B cells were subsequently sort purified as in the first set of experiments and 8×10^5 MZ B cells were transferred into RAG^−/− recipients. Twenty-four hours later animals received high dose LPS (500 ug). Serum was collected at indicated time points to analyze TNF-α (FIG. 4 Panel E) and survival monitored (FIG. 4 Panel F). * p<0.05 **p<0.005 by a student's t test for all ELISA data and *p<0.05 **p<0.005 using a logrank and Gehan-Wilcoxon test for survival data.
Marginal zone B cells secrete copious amounts of polyreactive IgM. […] Based on this, serum was isolated from RAG^−/− animals that received a MZ B transplant from PSA treated mice and quantitated IgM serum levels.

[12] = PSA i.v. following LPS 500 ug i.p.
[13] = PSA i.v. thirty minutes post-LPS (PSA post)
[14] = RAG−/− mice reconstituted with CD19+ total B cells, i.v. PSA vs PBS

Substance: polysaccharide A [PSA]
- TNFα and IL-6 levels during septic shock ([1]; PSA i.v.): suppressed
- survival [1, 12]: completely protected from death
- serum TNF-α and IL-6 levels ([2]; PSA i.v. directly following LPS 500 ug i.p. (PSA same), 1 and 4 hours post-LPS): reduced levels
- survival ([2]; PSA i.v. directly following LPS (PSA same)): high survival rate
- serum TNF-α [2, 13]: lower serum levels
- survival [2, 13]: higher survival rate
- protection from sepsis (serum inflammatory cytokines, death) ([3]; PSA i.v. treated animals vs PBS treated): protected
- protection from sepsis (serum inflammatory cytokines, death) ([3]; RAG−/− animals that received MZ B cells from sIgM−/− mice, PSA i.v.): no longer protected by administration of PSA
- TNFα and IL-6 levels during septic shock ([4]; PSA i.v.): suppressed
- survival [4, 12]: completely protected from death
- serum inflammatory cytokines (TNF-α, IL-6) ([5]; PSA provided directly within the blood (intravenous), 1 and 4 hours post-LPS, vs mock treated): significantly blocked induction of serum inflammatory cytokines
- serum TNF-α ([5]; animals fed PSA (oral gavage), vs mock treated): slightly elevated
- survival ([5]; intravenous administration of PSA): potently protected animals from death
- PSA mediated protection ([6]; RAG−/− recipients of B1b cells, data not shown): did not restore PSA mediated protection
- survival ([6]; RAG−/− recipients of purified MZ B cells, PSA treated): protect animals from sepsis induced death
- serum levels of TNF-α ([6]; RAG−/− recipients of purified MZ B cells, PSA treated, 1 and 4 hours after high dose LPS): suppression of serum levels of TNF-α
- inflammatory cytokine expression (TNF-α, IL-17a, IL-6) in splenic CD4+ T cells ([7]; PSA orally gavaged 24 h prior to colitis induction, five days post-induction, vs colitogenic animals): reduced cytokine expression
- whether PSA influences inflammation within the systemic compartment (colon disease score, survival; FIG. 5 C, D) ([7]; intravenous PSA 24 h prior to TNBS colitis): supported this conclusion
- splenomegaly in colitic animals ([7]; orally gavaged PSA): able to prevent
- survival [8]: significantly increased survival rate
- overt inflammation on i.v. administration ([9]; PSA i.v. into animals): does not elicit overt inflammation
- TNF-α or IL-6 production induced by PSA on its own ([9]; PSA i.v., no LPS): does not on its own induce
- protection from sepsis (serum TNF-α, survival) ([10]; RAG−/− animals (no T and B cells), PSA i.v. 24 hours prior to high dose LPS i.p.): no longer protected animals from sepsis
- serum levels of TNFα [10, 14]: significantly reduced
- survival [10, 14]: survived
- PSA mediated protection from death ([10]; RAG−/− recipients of CD3+ total T cells): unable to restore PSA mediated protection from death
- prevention of death and suppression of systemic inflammation ([10]; RAG−/− recipients of CD4+ T cell depleted splenocytes): restored the ability of PSA to prevent death and suppress systemic inflammation
- PSA mediated protection from death ([10]; RAG−/− recipients of CD4+ sort purified T cells): unable to restore PSA mediated protection from death
- protection from endotoxin induced sepsis (serum TNF-α, mortality) ([11]; RAG−/− recipients of 8×10^5 MZ B cells from donors treated i.v. with PSA (100 ug), recipients not treated with PSA, LPS 500 ug): completely protected from endotoxin induced sepsis
- IgM serum levels during LPS induced sepsis ([11]; RAG−/− recipients of MZ B cells from PSA treated animals vs from mock treated mice): high levels of circulating IgM
